Square brackets hold non-standard residues; d marks the D form. Ends that are not written are not given here.
Experiments:
[1] = test system: SMAD transcriptional activity; test: SMAD transcriptional activity (luciferase) with GEF-1/C constituent oligopeptides, B16 cells; assay type: cell-based, mouse; conditions: oligopeptide 2.5 nmol with peptide transporter Wr-T, 48 hours
Description: Each GEF-1/C constituent oligopeptide (2.5 nmol) and a peptide transporter Wr-T (0.2 nmol) were mixed and then diluted to 0.1 ml with PBS, and mixed with a DNA solution for SMAD transcriptional activity testing (0.1 ml). To the respective cells (B16 cells and COLO205 cells) in a 48-well plate, which had been washed with Opti-MEM I medium, the mixture thus prepared was added in a volume of 0.2 ml per well. After 4 hours, 20% FBS/Opti-MEM I medium (0.2 ml) was added to each well. After 48 hours, the respective cells were lysed and the luciferase activity in each lysate was measured.

COLO205 cells [2] = test: growth in soft agar medium, COLO205 cells; assay type: cell-based, human; conditions: oligopeptide introduced with Wr-T
Description: (§1) A cell culture solution (1.5 ml), in which agarose (low gelling temperature agarose) was dissolved at a concentration of 0.5% (w/v), was added to a 35 mm dish, cooled and gelled. Onto the resulting gel, a 0.33% agarose/cell culture medium containing 5.0×10^3 cells was added in a volume of 1.5 ml. After gelling, the cells were cultured in a CO2 incubator for 2 weeks. A 0.005% (w/v) aqueous solution of crystal violet (0.5 ml) was added onto the gel and incubated overnight to stain the cells. The 35 mm dish was scanned with a scanner, and colony counts were measured from the resulting image using image analysis software.
(§2) The GEF-1/C constituent oligopeptides were studied for their inhibitory effect on the growth of various tumor cells (B16 cells, HeLa cells, COLO205 cells, KATO III cells, A549 cells and PT45 cells) in soft agar medium.
(§3) In the same manner as shown in (2) above, the GEF-1/C constituent oligopeptides were introduced into various tumor cells and these cells were seeded together with a 0.33% soft agar medium.

B16 cells [3] = test: in vivo anti-tumor growth effect of oligopeptides, B16 cells in nude mice; set-up: species or system mouse; conditions: cells incubated with oligopeptide 25 nmol and Wr-T for 2 hours, then inoculated subcutaneously into nude mice
Description: Each GEF-1/C constituent oligopeptide (25 nmol) and a peptide transporter Wr-T (2 nmol) were mixed and then diluted to 0.1 ml with PBS, to which each cell suspension prepared at 5.0×10^6 cells/ml Opti-MEM I medium was then added in a volume of 0.1 ml and mixed. This cell mixture was incubated in a CO2 incubator at 37° C. for 2 hours and then inoculated subcutaneously into nude mice. The long and short axes of tumor were measured at intervals of a week to calculate the tumor volume (=long axis×(short axis)^2×π/6). After the mice were finally euthanized with carbon dioxide gas, tumor in each mouse was photographed. Subsequently, the tumor was excised and measured for its wet weight.

HeLa cells = test: growth in soft agar medium, HeLa cells; assay type: cell-based, human; conditions: oligopeptide introduced with Wr-T
Description: as §1, §2, §3

B16 cells [4] = test: growth in soft agar medium, B16 cells; assay type: cell-based, mouse; conditions: oligopeptide introduced with Wr-T
Description: as §1, §2, §3

COLO205 cells [5] = test: in vivo anti-tumor growth effect of r9-OP10-11 on established COLO205 tumor in nude mice; set-up: species or system human; conditions: tumor already formed; 35 nmol in PBS around the tumor, four weekly administrations
Description: 1.0×10^6 COLO205 cells were inoculated subcutaneously into nude mice to prepare tumor of COLO205 cells. At 10 days after inoculation, a solution of r9-OP10-11 (35 nmol)/PBS was administered in a volume of 0.1 ml around the tumor whose diameter reached 5 to 6 mm (about 100 mm^3) At 7, 14 and 21 days after this administration, the same administration was repeated. The long and short axes of tumor were measured to calculate the tumor volume (=long axis×(short axis)^2×π/6). After the mice were finally euthanized with carbon dioxide gas, tumor in each mouse was photographed. Subsequently, the tumor was excised and measured for its wet weight.

B16 cells [6] = test: cell migration ability of shRNA-expressing B16 cells, Boyden chamber; assay type: cell-based, mouse; conditions: B16 cells stably expressing the shRNA
Description: (§4) The respective shRNA expression vectors prepared in i) above were each introduced into B16 cells by gene transfer and subjected to drug selection using G418 drug (1 mg/ml). B16 cells expressing the respective shRNAs (B16/shRNA-74 cells, B16/shRNA-157 cells and B16/shRNA-207 cells) were finally obtained by cloning. These cells were confirmed for their GEF-1 expression levels by Western blotting and also examined for their ability of cell migration using a Boyden chamber.

GEF-1 (Hrs/Hgs) = test: GEF-1 (Hgs) expression level by Western blotting in shRNA-expressing B16 cells; assay type: cell-based, mouse; conditions: B16 cells stably expressing the shRNA
Description: as §4

KOP2.16 cells = test: tube formation inhibition test with GEF-1 siRNAs; assay type: cell-based, mouse; conditions: siRNA 40 nmol with lipofectamine 2000; transfected KOP2.16 cells seeded on Matrigel
Description: To confirm the in vitro anti-angiogenic effect of the GEF-1-siRNAs, a tube formation inhibition test was conducted using vascular endothelial KOP2.16 cells.
Each siRNA (40 nmol) and lipofectamine 2000 (10 μl) were mixed and then diluted to 1.0 ml with Opti-MEM I medium, and added to KOP2.16 cells in a 35 mm dish, which had been washed with Opti-MEM I medium. After 4 hours, 20% FBS-containing Opti-MEM I medium (1.0 ml) was added to the dish. After 48 hours, siRNA-transfected cells were collected and counted, and then suspended in Opti-MEM I medium and seeded again on Matrigel. After 18 to 48 hours, tube formation in the cells was observed. As negative controls, PBS (“None” in FIG. 15) and Stealth RNA Negative Control Medium GC Duplex (Invitrogen) (“siRNA-MNC” in FIG. 15) were used.

B16 cells [7] = test: in vivo anti-tumor growth effect of siRNA#3, B16 tumor in nude mice; set-up: species or system mouse; conditions: siRNA#3/atelocollagen mixture injected near the tumor, three times at intervals of a week
Description: B 16 cells were inoculated subcutaneously into nude mice. After about a week when tumor reached about 5 mm diameter (about […]), an siRNA#3/atelocollagen mixture (0.2 ml) was injected near the tumor. Subsequently, the same siRNA#3/atelocollagen mixture was further injected twice near the tumor at intervals of a week.

OP10-7: GEF-1/C constituent oligopeptide ALSALREEHR (SEQ ID NO: 60)
inhibition of SMAD transcriptional activity [1]: about 50%

OP10-10: GEF-1/C constituent oligopeptide KLEIMRQKKQ (SEQ ID NO: 63)
inhibition of growth ability in soft agar medium (COLO205 cells [2]): about 50%

OP10-11: GEF-1/C constituent oligopeptide EYLEVQRQLA (SEQ ID NO: 64)
inhibition of B16 cell tumor growth (B16 cells [3]): ≥ 50%
inhibition of growth ability in soft agar medium (COLO205 cells [2]): about 50%
inhibition of growth ability in soft agar medium (HeLa cells): about 20%
inhibition of SMAD transcriptional activity [1]: about 50%
inhibition of growth ability in soft agar medium (B16 cells [4]): about 60%

OP10-12: GEF-1/C constituent oligopeptide IQRLQEQEKE (SEQ ID NO: 65)
inhibition of SMAD transcriptional activity [1]: about 50%

r9-OP10-11: OP10-11 linked to a cell membrane permeable peptide, rrrrrrrrrGPGEYLEVQRQLA (r = D-arginine) (SEQ ID NO: 67) ([dR][dR][dR][dR][dR][dR][dR][dR][dR]GPGEYLEVQRQLA)
inhibition of growth of COLO205 cell tumor in tumor volume (COLO205 cells [5]): about 65%
inhibition of growth of COLO205 cell tumor in tumor weight (COLO205 cells [5]): about 60%

shRNA-157: shRNA against mouse GEF-1 (Hrs/Hgs) gene, Hgs157 template SEQ ID NO: 26; B16/shRNA-157 cells used as B16/shRNA cells (DNA CCGTTAATGATAAGAACCCACTTCAAGAGAGTGGGTTCTTATCATTAACTTTTTA)
inhibition of cell migration ability (B16 cells [6]): 95%
inhibition of Hgs expression (GEF-1 (Hrs/Hgs)): 95%

siRNA#2: stealth RNAi against mouse Hgs; sense 5′-GGACGAUACUCGUCGACUUGUUCUU (SEQ ID NO: 32, 33) (antisense AAGAACAAGUCGACGAGUAUCGUCC; listed as RNA, chemistry not given here)
inhibitory effect on tube formation (KOP2.16 cells): significant inhibitory effect

siRNA#3: stealth RNAi against mouse Hgs; sense 5′-UAGAAUGGACUCCCAGUCUGACUCC (SEQ ID NO: 34, 35) (antisense GGAGUCAGACUGGGAGUCCAUUCUA; listed as RNA, chemistry not given here)
tumor volume as compared to PBS or siRNA#3-scramble (B16 cells [7]): ≤ 50%
tumor weight as compared to PBS or siRNA#3-scramble (B16 cells [7]): ≤ 50%
inhibitory effect on tube formation (KOP2.16 cells): significant inhibitory effect

— patent publication US20130190240A1, “TUMOR GROWTH CONTROLLING METHOD TARGETING GALACTOSYLCERAMIDE EXPRESSION FACTOR-1” (priority 2010, published 2013)
